Legend:
[1] = tested on: choline acetyltransferase (ChAT) activity in dissociated rat embryonic spinal cord culture; test: Spinal Cord ChAT Activity Assay; assay type: cell-based; settings: ChAT measured after 48 hours
Description: In these assays, a fused pyrrolocarbazole was directly added to a dissociated spinal cord culture. […] The fused pyrrolocarbazole was added on the same day the dissociated spinal cord cell culture was initiated.
Methods: Fetal rat spinal cord cells were dissociated, and experiments were performed as described (Smith et al., J. Cell Biology., 101:1608-1621 (1985); Glicksman et al., J. Neurochem. 61:210-221 (1993)). Dissociated cells were prepared from spinal cords dissected from rats (embryonic day 14-15) by standard trypsin dissociation techniques (Smith et al., J. Cell Biology 10:1608-1621 (1985)). Cells were plated at 6×10^5 cells/cm^2 on poly-1-ornithine coated plastic tissue culture wells in serum-free N2 medium supplemented with 0.05% bovine serum albumin (BSA) (Bottenstein et al., PNAS USA 514-517 (1979)). Cultures were incubated at 37° C. in a humidified atmosphere of 5% CO2 /95% air for 48 hours. ChAT activity was measured after 2 days it vitro using a modification of the Fonnum procedure (Fonnum, J. Neurochem. 24:407-409 (1975)) according to McManaman et al. and Glicksman et al. (McManaman et al., Developmental Biology 125:311-320 (1988); Glicksman et al., J. Neurochem. 61:210-221 (1993)).

[2] = tested on: ChAT activity of basal forebrain cultures; test: Basal Forebrain ChAT Activity Assay; assay type: cell-based, rat
Outline: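 Basal forebrain neurons from E17–18 rat embryos were Dispase-dissociated and plated at 5×10^4 cells/well on poly-ornithine/laminin. Cultures were kept in serum-free N2 medium with 0.05% BSA at 37° C. ChAT activity was measured 5 days after plating as the read-out for compound-induced increase.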

[3] = tested on: NT-3 induced ChAT activity of rat basal forebrain cultures; test: Enhancement of Neurotrophin (NT-3) Activity Assay, ChAT activity in basal forebrain cultures; assay type: cell-based
Description: Fused pyrrolocarbazoles were tested for the ability to enhance the activity of the neurotrophin NT-3 in basal forebrain cultures. ChAT activity was assayed as a measure of cholinergic neuron function and survival. The concentration of NT-3 (100 ng/ml) used in these experiments increased ChAT activity over control cultures (untreated with NT-3 or a fused pyrrolocarbazole) by 140%.
Methods. Basal forebrain cultures were prepared from embryonic rats (embryonic day 17) and dissociated with the neutral protease Dispase™. Cells were plated at a density of 4×10^5 cells/cm^2 on poly-1-ornithine coated plastic tissue culture plates in a mixture of DMEM and F12 media (50/50 v/v GIBCO) supplemented with 5% horse serum and 0.5% fetal bovine serum. Cells were incubated at 37° C. in a humidified atmosphere of 5% CO2 /95% air for 5 days. ChAT activity was measured as described in Example III(A)(1).
Recombinant rat NT-3 was produced by using a recombinant baculovirus expression vector under the control of the polyhedron virus promoter (Fraser, In Vitro Cell. and Dev. Biol. 25:225-235 (1989)). The plasmid pXM-NT3 (Hallbook et al., Neuron 6:845-858 (1991), which contained the rat NT-3 cDNA clone, was provided by Dr. Ira Black (University of Medicine and Dentistry of New Jersey, Piscataway, N.J.). NT-3 cDNA was subcloned into the transfer vector pVL1392 (In Vitrogen Corp., San Diego, Calif.) for recombinant virus production. Recombinant baculovirus was produced as described in Meyer et al. (Meyer at al., J. Neurochem 62:825-833 (1994)).

[4] = target: trkA tyrosine kinase (Homo sapiens, UniProt P04629); test: trkA Tyrosine Kinase Activity Inhibition Assay (ELISA); assay type: biochemical; settings: 16 μM ATP, 37° C., 15 min; read-out: INHIBITION OF trkA KINASE IC50
Description: These compounds were then tested for the ability to inhibit substrate phosphorylation by the trkA tyrosine kinase.
Plates were washed three times with TBST, followed by two washes with TBS (TBST sans Tween-20). Fused pyrrolocarbazoles were then added at various concentrations to a reaction mixture (50 mM HEPES, pH 7.4, 5 mM MnCl2, 5 mM MgCl2, 140 mM NaCl, 16 μM ATP, and 15 ng trkA in a total volume of 1001 μL.). As a negative control, 100 mM EDTA was included in the reaction solution. The plates were then incubated at 37° C. for 15 min. The detection antibody, monoclonal anti-phosphotyrosine antibody (UBI), was added at a dilution of 1:2000 in TBST, and incubated for 1 hour at 37° C. Plates were then washed three times with TBST, followed by a 1 hour incubation at 37° C. with alkaline phosphatase-labeled goat anti-mouse IgG (1:2000 in TBST (Bio-Rad)). After washing three times with TBST followed by two washes with TBS, a colored product was produced by using NADPH as substrate for alkaline phosphatase, and the coupled reactions of diaphorase and alcohol dehydrogenase (GIBCO-BRL ELISA amplification system). The colored product was read at 490 nm in a microplate reader (Biotek).

[5] = target: protein kinase C; test: PKC Activity Inhibition Assay; assay type: biochemical
Description: Fused pyrrolocarbazoles inhibited the activity of protein kinase C (Table VI). The protein kinase C assay has been disclosed (Murakata et al., U.S. Pat. No. 4,923,986; Kikkawa et al., J. Biol. Chem. 257:13341-13348 (1982)). The assay was performed with several concentrations of fused pyrrolocarbazoles. The concentration at which protein kinase C was 50% inhibited (IC50) was determined.

[6] = tested on: chick dorsal root ganglion neurons; test: DRG Neurite Outgrowth Assay; assay type: cell-based; settings: compound concentration 200 nM; 48 hours
Description: Fused pyrrolocarbazoles promoted nerve fiber (i.e., neurite) outgrowth in explant (i.e., primary) cultures of chick dorsal root ganglion neurons. Dorsal root ganglion (i.e., DRG) nerve fiber outgrowth was increased when a fused pyrrolocarbazole was added to cultures at a concentration of 200 nM (Table IV). Control cultures consisted of: 1) no added NGF or fused pyrrolocarbazole ("Control"), or 2) 50 ng/ml NGF, a neurotrophin known to promote neurite extension in DRG cultures ("NGF").
Methods: Dorsal root ganglia were dissected from chick embryos (embryonic day 9) and individual ganglia were plated on poly-1-ornithine and laminin coated plates. A fused pyrrolocarbazole or 50ng/ml NGF was each added to independent cultures after allowing a 1-2 hour cell attachment period. Explants were cultured for 48 hours in serum-free N2 medium supplemented with 0.05% BSA (Bottenstein et al., PNAS USA 76:514-517 (1979)). Cultures were maintained at 37° C. in a humidified atmosphere, 5% CO2 /95% air. Nerve fiber outgrowth was assessed by the density and length of neurites. It should be apparent to those skilled in the art that neurite extension assays are semi-quantitative and involve a visual comparison between control and experimental neuronal cell cultures (Alberts et al., Molecular Biology of the Cell, 2ed. Garland Publishing, Inc., New York (1989).

[7] = tested on: transcription of IFNα genes; settings: not associated with the inhibition of protein kinase C; cited from earlier work
[8] = tested on: trk tyrosine kinase; settings: cited from earlier work
[9] = tested on: human keratinocytes; settings: cited from earlier work
[10] = tested on: protein kinase C ("PKC"); settings: cited from earlier work

Sequence of trkA tyrosine kinase (P04629 33-796): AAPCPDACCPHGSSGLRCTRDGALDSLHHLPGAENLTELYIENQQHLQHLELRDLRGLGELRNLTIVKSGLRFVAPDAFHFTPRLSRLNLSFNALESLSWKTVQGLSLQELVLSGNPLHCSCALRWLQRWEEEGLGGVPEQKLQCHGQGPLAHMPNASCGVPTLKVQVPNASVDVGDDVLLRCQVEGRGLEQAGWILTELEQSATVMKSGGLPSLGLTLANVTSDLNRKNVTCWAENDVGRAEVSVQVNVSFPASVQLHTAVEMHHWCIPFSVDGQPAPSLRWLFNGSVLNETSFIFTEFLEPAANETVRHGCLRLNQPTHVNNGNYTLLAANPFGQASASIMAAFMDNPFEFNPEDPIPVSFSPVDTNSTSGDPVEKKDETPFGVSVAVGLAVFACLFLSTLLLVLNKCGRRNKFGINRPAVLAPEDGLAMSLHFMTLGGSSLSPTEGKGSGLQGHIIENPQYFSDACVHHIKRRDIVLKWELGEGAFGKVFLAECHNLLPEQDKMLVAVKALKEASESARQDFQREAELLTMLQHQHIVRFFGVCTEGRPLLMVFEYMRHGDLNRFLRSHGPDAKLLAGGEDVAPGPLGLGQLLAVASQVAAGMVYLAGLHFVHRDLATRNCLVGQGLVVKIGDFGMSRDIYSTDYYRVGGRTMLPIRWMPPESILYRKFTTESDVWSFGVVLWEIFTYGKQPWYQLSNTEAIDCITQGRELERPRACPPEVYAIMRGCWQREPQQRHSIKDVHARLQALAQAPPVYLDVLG

O=C1NC(=O)c2c1c1c(c3[nH]c4ccccc4c23)Cc2ccccc2-1 [Compound I-1, 6H, 12H, 13H-Indeno[2,3-a]pyrrolo[3,4-c]carbazole-5,7(5H, 7H))-dione]
Spinal Cord ChAT Activity, % of Control, untreated cultures [1]: 148 % of Control
ChAT Activity (% of Control) ([2]; 100 nM): inactive
ChAT Activity (% of Control) ([2]; 250 nM): inactive
ChAT Activity (% of Control) ([2]; 500 nM): inactive
ChAT activity in the absence of NT-3 ([3]; compound added alone to basal forebrain neurons, no NT-3): no effect on ChAT activity
ChAT activity in the presence of NT-3 ([3]; with 100 ng/ml NT-3): enhanced ChAT activity
IC50 [4]: > 1000 nM
IC50 [5]: 70 nM
DRG Neurite Outgrowth [6]: modest number of neurites

COC(=O)[C@@]1(O)C[C@H]2O[C@]1(C)n1c3ccccc3c3c4c(c5c6ccccc6n2c5c31)C(=O)NC4 [Compound K-252a]
inhibition of transcription of IFNα genes [7]: inhibit the transcription of IFNα genes
inhibition of trk tyrosine kinase [8]: inhibitor
NGF-stimulated proliferation of human keratinocytes [9]: prevents such proliferation
inhibition of protein kinase C [10]: inhibitor

NGF: a neurotrophin known to promote neurite extension in DRG cultures
proliferation of human keratinocytes [9]: stimulates the proliferation of human keratinocytes in culture
